Earlier results as cited in patent US6417191B1, “Synergistic combinations of zidovudine, 1592U89 and 3TC” (GlaxoSmithKline, priority 1995, dated 2002).
Where two headings read alike, the source gives them in different places.

Key:
[1] = plasma, patients, therapeutic doses of each drug as a single agent

| Compound | Peak Level (in vivo) [µM] | Trough Level (in vivo) [µM] | Peak Level [1] [µM] | Trough Level [1] [µM] | activity against HIV (HIV) |
| --- | --- | --- | --- | --- | --- |
| Nc1nc(NC2CC2)c2ncn([C@H]3C=C[C@@H](CO)C3)c2n1 (relative stereo) [1592U89, (1S,4R)-cis-4-[2-amino-6-(cyclopropylamino)-9H-purin-9-yl]-2-cyclopentene-1-methanol] | 3.5 | 0.1 | – | – | potent activity against HIV |
| Nc1ccn(C2CSC(CO)O2)c(=O)n1 (racemic) [BCH-189, 4-amino-1-(2-hydroxymethyl-1,3-oxathiolan-5-yl)-(1H)-pyrimidin-2-one] | – | – | – | – | anti-HIV activity |

Continued, in another order:

| Peak Level (in vivo) [µM] | Trough Level (in vivo) [µM] | Peak Level [1] [µM] | Trough Level [1] [µM] | Compound | activity against HIV (HIV) |
| --- | --- | --- | --- | --- | --- |
| – | – | 9 | 0.7 | Nc1ccn([C@@H]2CS[C@H](CO)O2)c(=O)n1 (single isomer, unassigned) [3TC] | – |
| 5 | 0.4 | – | – | Cc1cn([C@H]2C[C@H](N=[N+]=[N-])[C@@H](CO)O2)c(=O)[nH]c1=O [zidovudine, 3′-azido-3′-deoxythymidine] | – |
| 10 | 0.5 | – | – | Nc1nc(=O)n([C@@H]2CS[C@H](CO)O2)cc1F (relative stereo) [FTC, (2R,cis)-4-amino-5-fluoro-1-(2-hydroxymethyl-1,3-oxathiolan-5-yl)-(1H)-pyrimidin-2-one] | – |
